Data set [1] has as its system Calu-1 cells. Nature of the data set: Cell viability (MTS) and caspase 3/7 assays with gefitinib. The note with it: for Gefitinib sensitivity of transfected cells (caspase-3/7 and viability assays): Calu-1. Format: cell-based, human. Here is the method:
(§1) For detection of caspase 3/7 activity, cells were cultured in 96-well plates, in triplicate, treated with 5 μM, 10 μM or 15 μM gefitinig and analyzed using a Caspase-Glo 3/7 Assay kit (Promega) according to the manufacturer's instructions. Continuous variables are expressed as means±s.d. Cell viability was examined with 3-(4,5dimethylthiazol-2-yl)-2,5-dipheniltetrazolium bromide (MTS)-Cell Titer 96 AQueous One Solution Cell Proliferation Assay (Promega) according to the manufacturer's protocol. Metabolically active cells were detected by adding 20 μl of MTS to each well. After 1 h of incubation, the plates were analyzed in a Multilabel Counter (Bio-Rad Laboratories).

For data set [2], the system named is miR-30b, miR-30c, miR-221 and miR-222. Nature of the data set: qRT-PCR of miRNA expression after drug treatment. The note with it: for miR-30b, miR-30c, miR-221 and miR-222 expression after gefitinib: 5 μM or 10 μM gefitinib; for miR-221, miR-222, miR-30b and miR-30c expression after gefitinib: 10 μM gefitinib, 24 h. The format is cell-based, human. Here is the method: (§2) Real-time PCR was performed using a standard TaqMan PCR Kit protocol on an Applied Biosystems 7900HT Sequence Detection System (Applied Biosystems). The 10 pl PCR reaction included 0.67 pl RT product, 1 pl TaqMan Universal PCR Master Mix (Applied Biosystems), […]. The reactions were incubated in a 96-well plate at 95° C. for […], followed by 40 cycles of 95° C. for 15 s and 60° C. for 1 mM All reactions were run in triplicate. The threshold cycle (CT) is defined as the fractional cycle number at which the fluorescence passes the fixed threshold. The comparative CT method for relative quantization of gene expression (Applied Biosystems) was used to determine miRNA and genes expression levels. The y axis represents the 2^(−ΔCT), or the relative expression of the different miRs and genes. MiRs expression was calculated relative to U44 and U48 rRNA (for microRNAs) and to GAPDH (for genes). Experiments were carried out in triplicate for each data point, and data analysis was performed by using software (Bio-Rad).

A further data set relates to miR-103 and miR-203. Nature of the data set: qRT-PCR of miRNA expression after drug treatment. The format is cell-based, human. The note with it: Calu-1; 1 and 3 μM, 24, 48 and 72 h; P<0.05. Here is the method:
as §2

The test system of another data set is AKT/ERKs pathways. The data set can be described thus: Western blot of AKT/ERKs pathways after miRNA enforced expression. The format is cell-based. The following applies: A549; miRNA overexpression. Here is the method: (§3) Total proteins from NSCLC were extracted with radioimmunoprecipitation assay (PIRA) buffer ([…], pH 7.5, 1% Triton, 0.1% SDS, 0.1% sodium deoxycholate and 1% Nonidet P40). Sample extract (50 μg) was resolved on 7.5-12% SDS-polyacriylamide gels (PAGS) using a mini-gel apparatus (Bio-Rad Laboratories) and transferred to Hybond-C extra nitrocellulose. Membranes were blocked for 1 h with 5% nonfat dry milk in Tris-buffered saline containing 0.05% Tween 20, incubated overnight with primary antibody, washed and incubated with secondary antibody, and visualized by chemiluminescence.
(§4) The following primary antibodies were used: Apaf-1, Snail, Slug (abcam), Src, Met, Dicer, Vimintin, E-cadherin, Zeb1, Zeb-2 (Santa Cruz), Bim, pErks, total Erks, pAkt, total Akt, GAPDH, Parp (cell signaling, Pkc-ε, (BD transduction lab), β-actin antibody, Fibronectin (Sigma). A secondary anti-rabbit or anti-mouse immunoglobulin G (IgG) antibody peroxidase conjugate (Chemicon) was used.

In data set [3] the test system is Calu-1 cells. The data set can be described thus: Cell-cycle analysis by flow cytometry. Format: cell-based, human. Here is the method:
(§5) For cell-cycle analysis, cells were plated in 6 cm dishes, transfected as indicated in the figures, trypsinized, washed in PBS, and fixed with ice-cold 70% ethanol while vortexing. Cells were rehydrated in PBS and stained 30 min at RT with propidium iodide ([…] PI, 0.5 mg/ml RNase in PBS) prior to flow-cytometric analysis. Every experiment was repeated 5 times independently, with two replicas for each sample.

In the next data set the test system is NSCLCs. The data set can be described thus: Transwell migration assay. The format is cell-based. The following applies: 24 h. Here is the method: Transwell insert chambers with an 8-μm porous membrane (Greiner Bio One) were used for the assay. Cells were washed three times with PBS and added to the top chamber in serum-free medium. The bottom chamber was filled with medium containing 10% FBS. Cells were incubated for 24 h at 37° C. in a 5% CO2 humidified incubator. To quantify migrating cells, cells in the top chamber were removed by using a cotton-tipped swab, and the migrated cells were fixed in PBS, 25% glutaraldehyde and stained with crystal violet stain, visualized under a phase-contrast microscope and photographed. Crystalviolet-stained cells were then solubilized in acetic acid and methanol (1:1), and absorbance was measured at 595 nm.

A further data set relates to PKC-ε and SRC. The data set can be described thus: Western blot of PKC-ε and SRC protein. Format: cell-based, human. Here is the method: as §3, §4
The test system of data set [4] is mesenchymal markers and E-cadherin. Nature of the data set: Expression of epithelial and mesenchymal markers (immunofluorescence, immunoblot, qRT-PCR). The format is cell-based, human. The note with it: Calu-1. Here is the method: Cells were grown on Lab-Tek II CC2 chamber slides (Nunc), fixed with 4% paraformaldehyde and permeabilized with 0.2% Triton X-100/PBS before blocking with 10% sheep serum (Caltag Laboratories). All the primary antibodies were from Abcam. Secondary antibodies were goat antibodies to mouse or rabbit coupled to Alexa 488 (Invitrogen). F-actin was stained by using a phalloidin reagent (Invitrogen). Cell nuclei were visualized with DAPI (Sigma). Slides were mounted with SlowFade Gold Antifade reagent (Invitrogen).
as §3, §2

Data set [5] has as its system A549 cells. The data set can be described thus: Cell-cycle analysis by flow cytometry. Format: cell-based. Here is the method:
as §5

In data set [6] the test system is A549 cells. The data set can be described thus: A549 xenograft in nude mice with gefitinib treatment. The following applies: for Tumor growth: nude mice injected s.c. with stably infected A549 cells, 35 days; for Sensitivity to gefitinib-induced apoptosis in vivo: nude mice, stably infected A549 cells, gefitinib 200 mg/kg oral gavage, 2 weeks. Format: in vivo. Here is the method: A549 cells were stably infected with a control miRNA, miR-103 and miR-203 or with control inhibitor of miRNA or a lentiviral inhibitor of miR-221 and miR-30c (SBI). We injected 5×10^6 viable cells subcutaneously into the right flanks of 6-week-old male nude mice (Charles River Breeding Laboratories). Treatment was started 7 d after tumor cell inoculation. […] Tumor size was assessed twice per week using a digital caliper. Tumor volumes were determined by measuring the length (1) and the width (w) of the tumor and calculating the volume (V=lw^2/2). We killed the mice 35 days after injection. Statistical significance between the control and treated mice was evaluated using a Student's t test. Mouse experiments were conducted after approval by the institutional animal care and use committee at Ohio State University.
A549 cells were stably infected with the Human pre-microRNA Expression Construct Lenti-miR expression plasmid containing the full-length miR-103, miR-203 or the anti-miR-221, miR-30c and the GFP gene under the control of two different promoters (System Biosciences). An empty vector was used as control. Pre-miRs expression and control constructs were packaged with pPACKH1 Lentivector Packaging Plasmid mix (System Biosciences) in a 293TN packaging cell line. Viruses were concentrated using PEGit Virus Precipitation Solution, and titers were analyzed using the UltraRapid Lentiviral Titer Kit (System Biosciences). Infected cells were selected by FACS analysis (FACScalibur; BD Bioscience). Infection efficiency >90% was verified by fluorescent microscopy and confirmed by real-time PCR for miRs expression.

The next data set deals with BIM and APAF-1. Nature of the data set: Western blot of BIM and APAF-1 protein. Format: cell-based, human. The note with it: 24 h; for BIM and APAF-1 protein after gefitinib: 5 μM or 10 μM gefitinib; for APAF-1 and BIM expression after gefitinib: 5 or 10 μM gefitinib. Here is the method: as §3, §4
The subject of another data set is phosphorylated ERKs. Nature of the data set: Western blot of ERK phosphorylation after gefitinib. The format is cell-based. The note with it: 24 h; for Concentration of phosphorylated ERKs compared to untreated cells: 5 μM or 10 μM gefitinib; for ERKs phosphorylation after gefitinib: 5 or 10 μM gefitinib. Here is the method: as §3, §4
In a further data set the test system is PC9 cells. Nature of the data set: Cell viability (MTS) and caspase 3/7 assays with gefitinib. The format is cell-based. The note with it: PC9 EGFR mutant; even at low doses (0.1 μM), 24 h. Here is the method:
as §1

The test system of data set [7] is miR-21, miR-29a, miR-29c and miR-100. The data set can be described thus: qRT-PCR of miRNA expression after drug treatment. Format: cell-based, human. The note with it: 5 and 10 μM gefitinib. Here is the method: as §2
The next data set has as its system Dicer. Nature of the data set: Western blot of Dicer. The following applies: Calu-1. Format: cell-based. Here is the method: as §3, §4
Where [8] appears, read: SU11274 treated Calu-1 cells exposed to different concentrations of gefitinib, 24 h.

Data on 4 compounds can be found in patent publication US20140351963A1, “MiRNAs Useful to Reduce Lung Cancer Tumorigenesis and Chemotherapy Resistance and Related Compositions and Methods” (Ohio State Innovation Foundation, priority 2011, published 2014).

For the compound `Cc1[nH]c(/C=C2\C(=O)Nc3ccc(S(=O)(=O)N(C)c4cccc(Cl)c4)cc32)c(C)c1C(=O)N1CCN(C)CC1` [SU11274], in the data set with Calu-1 cells [1] (setting [8]), the “Caspase-3/7 activity on exposure to gefitinib” value was “increased” and the “Cell viability on exposure to gefitinib” value is “decreased”. Also, the “miR-30b/c and miR-221/miR-222 expression after SU11274” value in data set [2] (Calu-1, 1 and 3 μM, 24, 48 and 72 h) is “down-regulation”. In addition, in the data set on miR-103 and miR-203, the “miR-103 and miR-203 expression after SU11274” value is “increased”.

Consider “miR-203: synthetic miR-203 or lentiviral construct containing full-length miR-203; targets SRC (CTAGTGGTCCTAAACATTTCAC; listed as DNA, chemistry not given here)”, for which, in the data set on AKT/ERKs pathways, the “Phosphorylation of AKT, GSK3β and the ERKs” value is recorded as “reduced phosphorylation”. Besides, in the data set with Calu-1 cells [3], the “Cell cycle distribution (G1 fraction; S and G2-M phases)” value is “increased G1 cell fraction”. Also, the “Gefitinib sensitivity of transfected cells (caspase-3/7 and viability assays)” value with Calu-1 cells [1] is “increased the sensitivity”. Moreover, the “Migration reduced compared to controls” value in the data set with NSCLCs is “about 60%”. Also, the “Concentrations of PKC-ε and SRC protein after enforced miRNA expression” value in the data set on PKC-ε and SRC was “clearly reduced”. Also, in [4], the E-cadherin expression entry is “increased” and the “Expression of mesenchymal markers” value is “downregulation”. Also, in the data set on A549 cells [5], the “Cell cycle distribution (G1 fraction; S and G2-M phases)” value is given as “increased G1 cell fraction”. In the data set on A549 cells [6], the Tumor growth result is listed as “marked inhibition” and the “Sensitivity to gefitinib-induced apoptosis in vivo” value is reported as “increased sensitivity”.

Take `COc1cc2ncnc(Nc3ccc(F)c(Cl)c3)c2cc1OCCCN1CCOCC1` [gefitinib]: the “BIM and APAF-1 protein after gefitinib” value was “increased amounts” in the data set with BIM and APAF-1 (HCC827); “increased amounts” with BIM and APAF-1 (PC9). In addition, the “APAF-1 and BIM expression after gefitinib” value in the data set on BIM and APAF-1 (HCC827GR) is listed as “did not change”; in the data set with BIM and APAF-1 (PC9GR), “did not change”. Also, the “Concentration of phosphorylated ERKs compared to untreated cells” value in the data set with phosphorylated ERKs (HCC827) and in the data set on phosphorylated ERKs (PC9) was “markedly lower” throughout. Besides, the “ERKs phosphorylation after gefitinib” value in the data set with phosphorylated ERKs (HCC827GR) and with phosphorylated ERKs (PC9GR) was “did not change” each time. In addition, the “Cell growth / viability relative to untreated controls” value with PC9 cells is “significantly inhibited”. The “miR-30b, miR-30c, miR-221 and miR-222 expression after gefitinib” value is “does not decrease” in data set [2] (A549 gefitinib-resistant), “does not decrease” in data set [2] (Calu-1 gefitinib-resistant), “downregulation” in data set [2] (HCC827) and “downregulation” in data set [2] (PC9). Also, the “miR-221, miR-222, miR-30b and miR-30c expression after gefitinib” value in data set [2] (HCC827 GR) and in data set [2] (PC9 GR) was “did not decrease” throughout. Moreover, the “miR-21, miR-29a, miR-29c and miR-100 expression after gefitinib” value in data set [7] (HCC827) and in data set [7] (PC9) was “downregulated” each time. Moreover, the “Downregulation of miR-21, miR-29a, miR-29c and miR-100 after gefitinib” value in [7] (HCC827 GR) and in [7] (PC9 GR) was “not observed” in each case.

On to “miR-103: synthetic miR-103 or lentiviral construct containing full-length miR-103; targets PKC-ε and Dicer (AGCAGCATTGTACAGGGCTATGA; listed as DNA, chemistry not given here)”, for which the “Phosphorylation of AKT, GSK3β and the ERKs” value with AKT/ERKs pathways is recorded as “reduced phosphorylation”. For the same compound, the “Cell cycle distribution (G1 fraction; S and G2-M phases)” value with Calu-1 cells [3] is reported as “increased G1 cell fraction”. In addition, in the data set on Calu-1 cells [1], the “Gefitinib sensitivity of transfected cells (caspase-3/7 and viability assays)” value is recorded as “increased the sensitivity”. Moreover, the “Migration reduced compared to controls” value with NSCLCs was “about 60%”. Besides, the “Concentrations of PKC-ε and SRC protein after enforced miRNA expression” value with PKC-ε and SRC is on record as “clearly reduced”. In [4], the E-cadherin expression result is reported as “increased” and the “Expression of mesenchymal markers” value was “downregulation”. The Dicer level result in the data set on Dicer is listed as “marked down-regulation”. Further, in the data set on A549 cells [5], the “Cell cycle distribution (G1 fraction; S and G2-M phases)” value is reported as “increased G1 cell fraction”. Also, in the data set on A549 cells [6], the Tumor growth result was “marked inhibition” and the “Sensitivity to gefitinib-induced apoptosis in vivo” value is “increased sensitivity”.
